Like-named read-outs stand apart in the source and are kept apart here.
How the values were obtained:
[1] = ref [7]; cited from earlier work
A549 (lung cancer) = experiment: Cytotoxicity against A549 lung carcinoma cell line; type: cell-based, human
SK-OV-3 (ovarian cancer) = experiment: Cytotoxicity against SK-OV-3 ovarian carcinoma cell line; type: cell-based, human
[2] = tested on: MRC-5 (human lung fibroblast); experiment: Cytotoxicity against MRC-5 cell line; type: cell-based; conditions: read-out: MRC-5 EC50 (human lung fibroblast); triplicates
[3] = tested on: MDA-MB-231 (breast cancer); experiment: Cytotoxicity against MDA-MB-231 breast carcinoma cell line; type: cell-based; conditions: Homo sapiens
[4] = Cytotoxicity against MRC-5 cell line; type: cell-based, human; conditions: human, MRC-5 cells (human lung fibroblast, embryonic cell line)
[5] = tested on: polio-infected HeLa cells; conditions: at 10^−7 M; ref [5],[4b]; cited from earlier work
P.f. K1 = conditions: read-out: P.f. K1 IC50; antiprotozoal; ref [5],[4b]; cited from earlier work
MRC-5 = conditions: read-out: MRC-5 IC50; cytotoxicity against human eukaryotic cell lines; ref [5],[4b]; cited from earlier work

## jogyamycin [Compound 3]
[1]
  antiprotozoal activity relative to 1: increased antiprotozoal activity relative to 1

## CC(=O)c1cccc(N[C@H]2[C@H](N)[C@]3(NC(=O)O[C@H]3C)[C@@](C)(O)[C@@]2(O)CO)c1 [Compound 21, De-6-MSA pactamycate]
A549 (lung cancer); read-out: A549 EC50 (lung cancer), triplicates
  EC50: 6 µM
SK-OV-3 (ovarian cancer); read-out: SK-OV-3 EC50 (ovarian cancer), triplicates
  EC50: 3.8 µM
[2]
  EC50: 2.93 µM

## CC(=O)c1cccc(N[C@H]2[C@H](N)[C@@](NC(=O)N(C)C)([C@H](C)O)[C@@](C)(O)[C@@]2(O)COC(=O)c2c(C)cccc2O)c1 [Compound 1, pactamycin]
A549 (lung cancer); Homo sapiens, A549, read-out: A549 EC50
  EC50: 0.16 µM
A549 (lung cancer); Homo sapiens, A549, read-out: A549 EC50 (lung cancer)
  EC50: 0.16 µM
[3]; MDA-MB-231, read-out: MDA-MB-231 EC50
  EC50: 0.124 µM
[3]; MDA-MB-231, read-out: MDA-MB-231 EC50 (breast cancer)
  EC50: 0.124 µM
SK-OV-3 (ovarian cancer); Homo sapiens, SK-OV-3, read-out: SK-OV-3 EC50 (ovarian cancer)
  EC50: 0.129 µM
[4]
  EC50: 0.053 µM
[5]
  inhibition of polio-infected HeLa cells: complete inhibition
P.f. K1
  IC50: 0.0142 µM
MRC-5
  IC50: 0.095 µM

## CC[C@]1(NC(=O)N(C)C)[C@@H](N)[C@H](Nc2cccc(C(C)=O)c2)[C@](O)(COC(=O)c2c(C)cccc2O)[C@]1(C)O [Compound 2, 7-Deoxypactamycin]
[1]
  antiprotozoal activity relative to 1: increased antiprotozoal activity relative to 1

Reference: article PMC4380168 (Bioorganic & medicinal chemistry, 2015)
